Test: Saturation solubility of 1,2,4,5-cyclohexanetetracarboxylic acid in water
Format: physicochemical
From the text: Here, the saturation solubility of 1,2,4,5-cyclohexanetetracarboxylic acid in water is as follows.

## O=C(O)C1CC(C(=O)O)C(C(=O)O)CC1C(=O)O (stereo not drawn) [1,2,4,5-cyclohexanetetracarboxylic acid]
88.2 °C
  Saturation solubility (concentration of a saturated aqueous solution): 29.6 % by mass
98.3 °C
  Saturation solubility (concentration of a saturated aqueous solution): 33.1 % by mass
100 °C
  Saturation solubility (concentration of a saturated aqueous solution): 33.7 % by mass

From patent US11174269B2, “Method for producing 1,2,4,5-cyclohexanetetracarboxylic dianhydride” (MITSUBISHI GAS CHEMICAL COMPANY, INC., priority 2017, dated 2021)
